≈ marks a conversion by molar mass, not a printed value.
Key:
[1] = ΔH, ΔS and stability constant (Kc) of drug-HPβCD MS 0.6 complexes, effect of PVP (Example 17); format: physicochemical; conditions: for ΔH / ΔS: HPβCD MS 0.6 complex
Method: The effect of polyvinylpyrrolidone (PVP) on the enthalpy (ΔH) and the entropy (ΔS) of the stability constant (Kc) of the drug-cyclodextrin complex was determined.
An excess amount of the drug was added to water containing 0, 0.1, 0.25 or 0.5% (w/v) PVP and various amounts of HPβCD or HPαCD.

physchem [2] = assay: physchem
physchem [3] = assay: physchem; remark: listed apart in the source
physchem [4] = assay: physchem; remark: listed apart in the source
physchem [5] = assay: physchem; remark: listed apart in the source
[6] = Effect of polymers on the solubilization of various compounds in aqueous HPβCD solutions (Example 14)
Method: An excess amount of the compound to be tested was added to each solvent and the suspensions which formed were heated in sealed containers to 120° C. The solubility of salicylic acid was determined in acidic (HCl) solution.

[7] = Effect of previously prepared solid HPβCD-polymer complexing agent on solubility (Example 13); format: physicochemical
Method: The resultant solutions were heated in sealed containers to 120° C. and maintained at that temperature for 30 minutes, then were lyophilized. The solids thus obtained were ground with a mortar and pestle.
The solid cyclodextrin/polymer products were reconstituted with water to afford solutions containing 9.88% (w/v) HPβCD and 0.12% (w/v) PVP, 0.12% (w/v) or CMC 0.12% (w/v) HPMC. The solubilities (S) of three drugs in these solutions and in an aqueous solution containing 10% (w/v) HPβCD without added polymer were then determined as follows:
An excess amount of each drug was added to each of the four cyclodextrin solutions and the solutions were sonicated in an ultrasonic bath for 3 hours, then allowed to equilibrate for 60 hours at room temperature (23° C.). […] However, by separate preparation of the cyclodextrin/polymer complexing agent as illustrated here, one can readily avoid heating drugs which are unstable at elevated temperature.

[8] = HPβCD with CMC / HPβCD without polymer (S6)
[9] = HPβCD with HPMC / HPβCD without polymer (S8)
[10] = HPβCD with PVP / HPβCD without polymer (S7)

SMILES: C[C@]12CC[C@@H]3c4ccc(O)cc4CC[C@H]3[C@@H]1CC[C@@H]2O [17β-Estradiol, 17β-estradiol]
- ΔH ([1]; PVP 0.00% w/v): -17 kcal/mol
- ΔS ([1]; PVP 0.00% w/v): -151 J mol^-1 K^-1
- ΔH ([1]; PVP 0.10% w/v): -18 kcal/mol
- ΔS ([1]; PVP 0.10% w/v): -166 J mol^-1 K^-1
- ΔH ([1]; PVP 0.25% w/v): -21.4 kcal/mol
- ΔS ([1]; PVP 0.25% w/v): -213 J mol^-1 K^-1
- ΔH ([1]; PVP 0.50% w/v): -19.4 kcal/mol
- ΔS ([1]; PVP 0.50% w/v): -185 J mol^-1 K^-1

SMILES: CC(=O)Nc1nnc(S(N)(=O)=O)s1 [Acetazolamide, acetazolamide]
- ΔH ([1]; PVP 0.00% w/v): -4.4 kcal/mol
- ΔS ([1]; PVP 0.00% w/v): -26.0 J mol^-1 K^-1
- ΔH ([1]; PVP 0.10% w/v): -6.17 kcal/mol
- ΔS ([1]; PVP 0.10% w/v): -49.6 J mol^-1 K^-1
- ΔH ([1]; PVP 0.25% w/v): -5.93 kcal/mol
- ΔS ([1]; PVP 0.25% w/v): -46.2 J mol^-1 K^-1
- ΔH ([1]; PVP 0.50% w/v): -6.17 kcal/mol
- ΔS ([1]; PVP 0.50% w/v): -49.8 J mol^-1 K^-1
- increase in apparent stability constant ([1]; HPβCD complex, 0.25% PVP (w/v)): 13%
- solubility (physchem [2]; 0.25% cmc + 10% hpbetacd): 3110 µg/mL
- solubility (physchem [2]; aqueous 0.25% cmc): 840 µg/mL (≈ 3.78 mM)
- solubility (physchem [2]; aqueous 10% hpbetacd): 2520 µg/mL (≈ 11.3 mM)
- solubility (physchem [2]; water): 700 µg/mL (≈ 3.15 mM)
- solubility (physchem [3]; 0.10% cmc, 10% hpβcd): 3600 µg/mL (≈ 16.2 mM)
- solubility (physchem [3]; 0.25% cmc, 10% hpβcd): 3210 µg/mL (≈ 14.4 mM)
- solubility (physchem [3]; 0.50% cmc, 10% hpβcd): 3750 µg/mL (≈ 16.9 mM)
- solubility (physchem [3]; aqueous 10% hpβcd ms=0.9): 2520 µg/mL (≈ 11.3 mM)
- solubility at 72 h (physchem [4]; 0.25% pvp, 10% hpβcd): 3660 µg/mL (≈ 16.5 mM)
- solubility at 72 h (physchem [4]; 10% hpβcd ms 0.7): 2800 µg/mL (≈ 12.6 mM)
- solubility at 72 h (physchem [4]; aqueous 0.25% pvp): 1050 µg/mL (≈ 4.72 mM)
- solubility at 72 h (physchem [4]; water): 700 µg/mL (≈ 3.15 mM)
- solubility (physchem [5]; 0.25% cmc in water): 840 µg/mL (≈ 3.78 mM)
- solubility (physchem [5]; 0.25% cmc, 10% hpbcd): 3110 µg/mL (≈ 14 mM)
- solubility (physchem [5]; 10% ethanol in water, organic solvent or mixture): 1110 µg/mL (≈ 4.99 mM)
- solubility (physchem [5]; 10% ethanol, 0.25% cmc, organic solvent or mixture): 750 µg/mL (≈ 3.37 mM)
- solubility (physchem [5]; 10% ethanol, 10% hpbcd, organic solvent or mixture): 2190 µg/mL (≈ 9.85 mM)
- solubility (physchem [5]; 10% hpbcd in water): 2520 µg/mL (≈ 11.3 mM)
- solubility (physchem [5]; ethanol, cmc, hpbcd, organic solvent or mixture): 2500 µg/mL (≈ 11.2 mM)
- solubility (physchem [5]; water): 700 µg/mL (≈ 3.15 mM)

SMILES: Cc1nnc2n1-c1ccc(Cl)cc1C(c1ccccc1)=NC2 [Alprazolam]
- solubility (physchem [2]; 0.25% cmc + 10% hpbetacd): 1550 µg/mL
- solubility (physchem [2]; aqueous 0.25% cmc): 180 µg/mL (≈ 0.583 mM)
- solubility (physchem [2]; aqueous 10% hpbetacd): 1280 µg/mL (≈ 4.15 mM)
- solubility (physchem [2]; water): 70 µg/mL (≈ 0.227 mM)

SMILES: COc1ccc(O)c(C(C)(C)C)c1 [Butylated hydroxyanisole]
- S2 solubility ([6]; 0.25% (w/v) CMC): 400 µg/mL
- S4 solubility ([6]; 0.25% (w/v) HPMC): 280 µg/mL
- S3 solubility ([6]; 0.25% (w/v) PVP): 1240 µg/mL
- S6 solubility ([6]; 0.25% CMC and 10% HPβCD MS=0.6 (salicylic acid: acidic HCl solution)): 14300 µg/mL
- S8 solubility ([6]; 0.25% HPMC and 10% HPβCD MS=0.6 (salicylic acid: acidic HCl solution)): 15500 µg/mL
- S7 solubility ([6]; 0.25% PVP and 10% HPβCD MS=0.6 (salicylic acid: acidic HCl solution)): 15800 µg/mL
- S5 solubility ([6]; 10% (w/v) HPβCD MS=0.6 (salicylic acid: acidic HCl solution)): 13900 µg/mL
- solubility ratio [6, 8]: 1.03
- solubility ratio [6, 9]: 1.12
- solubility ratio [6, 10]: 1.14
- S1 solubility ([6]; water): 400 µg/mL

SMILES: CC12CCC(CC1=O)C2(C)C (stereo not drawn) [Camphor]
- solubility ([6]; 0.25% hpmc + 10% hpβcd): 13300 µg/mL
- solubility ([6]; 0.25% pvp + 10% hpβcd): 13700 µg/mL
- solubility ([6]; aqueous 0.25% cmc): 2010 µg/mL (≈ 13.2 mM)
- solubility ([6]; aqueous 0.25% cmc, 10% hpβcd): 13800 µg/mL (≈ 90.6 mM)
- solubility ([6]; aqueous 0.25% hpmc): 1920 µg/mL (≈ 12.6 mM)
- solubility ([6]; aqueous 0.25% pvp): 2200 µg/mL (≈ 14.5 mM)
- solubility ([6]; aqueous 10% hpβcd): 12700 µg/mL (≈ 83.4 mM)
- solubility ([6]; water): 1840 µg/mL (≈ 12.1 mM)

SMILES: CC(C)(O)C(Cl)(Cl)Cl [Chlorbutol]
- solubility ([6]; 0.25% hpmc + 10% hpβcd): 29900 µg/mL
- solubility ([6]; aqueous 0.25% cmc): 8410 µg/mL (≈ 47.4 mM)
- solubility ([6]; aqueous 0.25% cmc, 10% hpβcd): 29300 µg/mL (≈ 165 mM)
- solubility ([6]; aqueous 0.25% hpmc): 8150 µg/mL (≈ 45.9 mM)
- solubility ([6]; aqueous 0.25% pvp): 8410 µg/mL (≈ 47.4 mM)
- solubility ([6]; aqueous 10% hpβcd): 28600 µg/mL (≈ 161 mM)
- solubility ([6]; water): 8110 µg/mL (≈ 45.7 mM)

SMILES: C=C1CC[C@H](O)C/C1=C/C=C1\CCC[C@]2(C)[C@@H]([C@H](C)CCCC(C)C)CC[C@@H]12 [Cholecalciferol]
- solubility ([6]; 0.25% hpmc + 10% hpβcd): 690 µg/mL
- solubility ([6]; 0.25% pvp + 10% hpβcd): 760 µg/mL
- solubility ratio [6, 8]: 1.18
- solubility ratio [6, 9]: 1.14
- solubility ratio [6, 10]: 1.25
- solubility ([6]; aqueous 0.25% cmc, 10% hpβcd): 720 µg/mL (≈ 1.87 mM)
- solubility ([6]; aqueous 10% hpβcd): 610 µg/mL (≈ 1.59 mM)

SMILES: Clc1ccccc1C(c1ccccc1)(c1ccccc1)n1ccnc1 [Clotrimazole, clotrimazole]
- solubility (physchem [2]; 0.25% cmc + 10% hpbetacd): 1400 µg/mL
- solubility (physchem [2]; aqueous 10% hpbetacd): 1200 µg/mL (≈ 3.48 mM)
- solubility at 72 h (physchem [4]; 0.25% pvp, 10% hpβcd): 1800 µg/mL (≈ 5.22 mM)
- solubility at 72 h (physchem [4]; 10% hpβcd ms 0.7): 1200 µg/mL (≈ 3.48 mM)

SMILES: Clc1ccc(COC(Cn2ccnc2)c2ccc(Cl)cc2Cl)cc1 (stereo not drawn) [Econazole, econazole]
- solubility ([7]; 9.88% hpbetacd + 0.12% cmc, 9.88% (w/v) HPβCD and 0.12% (w/v) CMC, read-out: S3 solubility): 5200 µg/mL
- solubility ([7]; 9.88% hpbetacd + 0.12% hpmc, 9.88% (w/v) HPβCD and 0.12% (w/v) HPMC, read-out: S4 solubility): 6320 µg/mL
- solubility ([7]; 9.88% hpbetacd + 0.12% pvp, 9.88% (w/v) HPβCD and 0.12% (w/v) PVP, read-out: S2 solubility): 5570 µg/mL
- solubility ([7]; 10% hpbetacd, 10% (w/v) HPβCD, read-out: S1 solubility): 4860 µg/mL (≈ 12.7 mM)
- solubility (physchem [2]; 0.25% cmc + 10% hpbetacd): 7410 µg/mL
- solubility (physchem [2]; aqueous 0.25% cmc): 600 µg/mL (≈ 1.57 mM)
- solubility (physchem [2]; aqueous 10% hpbetacd): 4860 µg/mL (≈ 12.7 mM)
- solubility (physchem [2]; water): 570 µg/mL (≈ 1.49 mM)
- solubility at 72 h (physchem [4]; 0.25% pvp, 10% hpβcd): 5650 µg/mL (≈ 14.8 mM)
- solubility at 72 h (physchem [4]; 10% hpβcd ms 0.7): 5220 µg/mL (≈ 13.7 mM)
- solubility at 72 h (physchem [4]; aqueous 0.25% pvp): 640 µg/mL (≈ 1.68 mM)
- solubility at 72 h (physchem [4]; water): 570 µg/mL (≈ 1.49 mM)
